Test results taken from patent publication US20230002359A1, “PESTICIDALLY ACTIVE FUSED BICYCLIC HETEROAROMATIC COMPOUNDS” (priority 2019, published 2023).

Legend:
Type in all cases: in vivo
[1] = system: Diabrotica Balteata (Corn Root Worm); experiment: Example B1: Diabrotica balteata (corn root worm), maize sprouts sprayed, L2 larvae; settings: 96 h, application rate of 200 ppm, 4 days after infestation, L2 larvae, read-out: control in at least one of the two categories (mortality or growth inhibition)
How it was run: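 Maize sprouts on agar were sprayed with aqueous test solutions made from 10′000 ppm DMSO stocks, dried, then infested with 6 to 10 L2 larvae per well. Mortality and growth inhibition were scored against untreated samples 4 days after infestation.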

[2] = system: Euschistus heros (Neotropical Brown Stink Bug); experiment: Example B2: Euschistus heros (neotropical brown stink bug), soybean leaves sprayed, N2 nymphs; settings: 120 h, application rate of 200 ppm, 5 days after infestation, N2 nymphs, read-out: control in at least one of the two categories (mortality or growth inhibition)
Protocol: Soybean leaves on agar in 24-well microtiter plates were sprayed with aqueous test solutions prepared from 10′000 ppm DMSO stock solutions. After drying the leaves were infested with N2 nymphs. The samples were assessed for mortality and growth inhibition in comparison to untreated samples 5 days after infestation.

[3] = system: Chilo suppressalis (Striped Rice Stemborer); experiment: Example B3: Chilo suppressalis (striped rice stemborer), artificial diet, L2 larvae; settings: 144 h, application rate of 200 ppm, 6 days after infestation, L2 larvae, read-out: control in at least one of the three categories (mortality, anti-feedant effect, or growth inhibition)
How it was run: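 Artificial diet treated with aqueous dilutions of DMSO stocks (10'000 ppm stock), dried, then infested with 6-8 L2 larvae per well. Mortality, anti-feeding and growth inhibition scored against untreated samples 6 days after infestation. Control counted when any category exceeds untreated.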

[4] = system: Plutella xylostella (Diamond Back Moth); experiment: Example B4: Plutella xylostella (diamond back moth), artificial diet, eggs, 24-well; settings: 192 h, application rate of 200 ppm, 8 days after infestation, eggs, read-out: control in at least one of the two categories (mortality or growth inhibition)
Protocol: 24-well microtiter plates with artificial diet were treated with aqueous test solutions prepared from 10′000 ppm DMSO stock solutions by pipetting. After drying, Plutella eggs were pipetted through a plastic stencil onto a gel blotting paper and the plate was closed with it. The samples were assessed for mortality and growth inhibition in comparison to untreated samples 8 days after infestation.

[5] = system: Spodoptera littoralis (Egyptian Cotton Leaf Worm); experiment: Example B7: Spodoptera littoralis (Egyptian cotton leaf worm), cotton leaf discs sprayed, L1 larvae; settings: foliar, 72 h, application rate of 200 ppm, 3 days after infestation, L1 larvae, read-out: control in at least one of the three categories (mortality, anti-feedant effect, or growth inhibition)
How it was run: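 Leaf discs on agar sprayed with aqueous dilutions of 10′000 ppm DMSO stocks, dried, then infested with five L1 larvae. Mortality, anti-feeding and growth inhibition scored versus untreated 3 days after infestation; control given when any category exceeds untreated.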

CC(=O)N(c1ncnc2c(C(F)(F)F)cc(C(F)(F)F)cc12)C(C)c1ncnn1-c1ccc(C#N)cn1 (stereo not drawn) [P.259, N-[6,8-bis(trifluoromethyl)quina-zolin-4-yl]-N-[1-[2-(5-cyano-2-pyridyl)-1,2,4-triazol-3-yl]ethyl]acetamide]
≥ 80%: percent control (mortality or growth inhibition) at 200 ppm [1] | percent control (mortality or growth inhibition) at 200 ppm [2] | percent control (mortality, anti-feedant effect or growth inhibition) at 200 ppm [3] | percent control (mortality or growth inhibition) at 200 ppm [4] | percent control (mortality, anti-feedant effect or growth inhibition) at 200 ppm [5]

COCN(c1ncnc2c(C(F)(F)F)cc(C(F)(F)F)cc12)C(C)c1ncnn1-c1ccc(C#N)cn1 (stereo not drawn) [P.7, 6-[5-[1-[[6,8-bis(trifluroomethyl)quina-zolin-4-yl]-(methoxymethyl)amino]ethyl]-1,2,4-triazol-1-yl]pyridine-3-carbonitrile]
≥ 80%: percent control (mortality or growth inhibition) at 200 ppm [1] | percent control (mortality or growth inhibition) at 200 ppm [2] | percent control (mortality, anti-feedant effect or growth inhibition) at 200 ppm [3] | percent control (mortality or growth inhibition) at 200 ppm [4] | percent control (mortality, anti-feedant effect or growth inhibition) at 200 ppm [5]

C[C@@H](c1ncnn1-c1ccc(C#N)cn1)N(C)c1ncnc2c(C(F)(F)C3CC3)cc(C(F)(F)F)cc12 [P.213, 6-[5-[(1S)-1-[[8-[cyclopropyl(difluoro)meth-yl]-6-(trifluoromethyl)quinazolin-4-yl]-methyl-amino]ethyl]-1,2,4-triazol-1-yl]pyridine-3-carbonitrile]
≥ 80%: percent control (mortality or growth inhibition) at 200 ppm [1] | percent control (mortality or growth inhibition) at 200 ppm [2] | percent control (mortality, anti-feedant effect or growth inhibition) at 200 ppm [3] | percent control (mortality or growth inhibition) at 200 ppm [4] | percent control (mortality, anti-feedant effect or growth inhibition) at 200 ppm [5]

CC(c1nccnc1-c1ncccn1)N(C)c1ncnc2c(C(F)(F)F)cc(C(F)(F)F)cc12 (stereo not drawn) [P.107, N-methyl-N-[1-(3-pyrimidin-2-ylpyrazin-2-yl)ethyl]-6,8-bis(trifluoromethyl)quina-zolin-4-amine]
≥ 80%: percent control (mortality or growth inhibition) at 200 ppm [1] | percent control (mortality or growth inhibition) at 200 ppm [2] | percent control (mortality, anti-feedant effect or growth inhibition) at 200 ppm [3] | percent control (mortality or growth inhibition) at 200 ppm [4] | percent control (mortality, anti-feedant effect or growth inhibition) at 200 ppm [5]

CC(c1nccnc1-n1nccn1)N(CC1CC1)c1ncnc2c(C(F)(F)F)cc(Br)cc12 (stereo not drawn) [P.78, 6-bromo-N-(cyclopropylmethyl)-N-[1-[3-(triazol-2-yl)pyrazin-2-yl]ethyl]-8-(trifluoromethyl)quinazolin-4-amine]
≥ 80%: percent control (mortality or growth inhibition) at 200 ppm [1] | percent control (mortality or growth inhibition) at 200 ppm [2] | percent control (mortality, anti-feedant effect or growth inhibition) at 200 ppm [3] | percent control (mortality or growth inhibition) at 200 ppm [4]

C#CCN(c1ncnc2c(C(F)(F)F)cc(C(F)(F)F)cc12)C(C)c1ncnn1-c1ccc(C#N)cn1 (stereo not drawn) [P.261, 6-[5-[1-[[6,8-bis(trifluoromethyl)quina-zolin-4-yl]-prop-2-ynyl-amino]ethyl]-1,2,4-triazol-1-yl]pyridine-3-carbonitrile]
≥ 80%: percent control (mortality or growth inhibition) at 200 ppm [1] | percent control (mortality or growth inhibition) at 200 ppm [2] | percent control (mortality, anti-feedant effect or growth inhibition) at 200 ppm [3] | percent control (mortality or growth inhibition) at 200 ppm [4] | percent control (mortality, anti-feedant effect or growth inhibition) at 200 ppm [5]

CC(c1nccnc1-n1nccn1)N(CC1CC1)c1ncnc2c(C(F)(F)F)cc(C(F)(F)F)cc12 (stereo not drawn) [P.75, N-(cyclopropylmethyl)-N-[1-[3-(triazol-2-yl)pyrazin-2-yl]ethyl]-6,8-bis(trifluoromethyl)quina-zolin-4-amine]
≥ 80%: percent control (mortality or growth inhibition) at 200 ppm [1] | percent control (mortality or growth inhibition) at 200 ppm [2] | percent control (mortality, anti-feedant effect or growth inhibition) at 200 ppm [3] | percent control (mortality or growth inhibition) at 200 ppm [4]
